Data published in article PMC12624743 (ACS Infectious Diseases, 2025).

Target: T1, N. gonorrhoeae topoisomerase IV ParC^D86N (Neisseria gonorrhoeae, UniProt P48374, D86N)
T1 construct: His; made in house
T1 sequence (P48374 1-768 D86N): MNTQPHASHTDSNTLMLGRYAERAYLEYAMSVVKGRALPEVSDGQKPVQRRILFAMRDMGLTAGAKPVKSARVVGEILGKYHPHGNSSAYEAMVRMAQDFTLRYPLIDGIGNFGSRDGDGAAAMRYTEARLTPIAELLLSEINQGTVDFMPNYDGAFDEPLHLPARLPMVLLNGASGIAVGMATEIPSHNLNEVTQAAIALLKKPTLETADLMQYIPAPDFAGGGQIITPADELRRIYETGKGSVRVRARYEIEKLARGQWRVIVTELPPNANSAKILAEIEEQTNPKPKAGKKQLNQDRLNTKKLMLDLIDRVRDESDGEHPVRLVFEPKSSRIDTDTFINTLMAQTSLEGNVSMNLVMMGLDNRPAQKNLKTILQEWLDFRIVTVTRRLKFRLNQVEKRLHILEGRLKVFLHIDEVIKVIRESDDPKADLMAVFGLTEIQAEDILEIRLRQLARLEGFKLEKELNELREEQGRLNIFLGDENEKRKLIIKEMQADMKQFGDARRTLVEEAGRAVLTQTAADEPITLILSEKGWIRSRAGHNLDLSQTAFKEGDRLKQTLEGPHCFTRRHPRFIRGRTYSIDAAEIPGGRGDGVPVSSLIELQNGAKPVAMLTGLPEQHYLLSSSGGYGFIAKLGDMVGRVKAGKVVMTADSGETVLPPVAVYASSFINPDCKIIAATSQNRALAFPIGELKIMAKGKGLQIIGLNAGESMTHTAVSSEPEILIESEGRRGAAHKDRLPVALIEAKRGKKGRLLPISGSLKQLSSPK
Test: DNA cleavage assay, ParC^D86N topoisomerase IV
Format: biochemical
Protocol: Some experiments replaced MgCl2 with an equivalent concentration of CaCl2 (10 mM), or 1.5 mM ATP was added to assay mixtures.
Reactions were incubated at 37 °C for 30 min with WT and mutant (GyrA^D90N, GyrA^A92T, GyrA^S91F, GyrA^D95G, or GyrA^S91F/D95G) N. gonorrhoeae gyrase, 10 min with WT N. gonorrhoeae topoisomerase IV, and 20 min with mutant (ParC^D86N, ParC^S88P, ParC^S87N, or ParC^E91G) N. gonorrhoeae topoisomerase IV. Enzyme-DNA cleavage complexes were trapped by adding 2 μL of 5% SDS followed by 2 μL of 250 mM EDTA (pH 8.0). Proteinase K was added (2 μL of a 0.8 mg/mL solution), and reaction mixtures were incubated at 45 °C for 30 min to digest the enzyme. Samples were mixed with 2 μL of loading buffer and heated at 45 °C for 2 min prior to electrophoresis in 1% agarose gels in 40 mM Tris-acetate (pH 8.3), and 2 mM EDTA containing 0.5 μg/mL ethidium bromide. DNA bands were visualized by midrange ultraviolet light and quantified using an Alpha Innotech digital imaging system (Protein Simple). Single-stranded DNA cleavage was monitored by the conversion of negatively supercoiled to nicked plasmid molecules.

In the case of `O=c1ccc2ncc(=O)n3c2n1C[C@H]3CN1CCC(NCc2cc3c(cn2)OCCC3)CC1` [gepotidacin], the “Adj-Max Cleavage, single-stranded DNA breaks” value is reported as 9.3% and the EC50 (ParC D86N topoisomerase IV, read-out: CC50, single-stranded DNA cleavage) is reported as over 50 µM.
